PubChem BioAssay (NCI)
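In this assay, cells in 96-well plates receive the compound at five concentrations for 48 hours. Endpoints are linearly interpolated between the surrounding concentrations. The concentration for full growth arrest is given as TGI.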

Legend:
Assay in all cases: inhibition of tumour cell growth, NCI panel, 48 h
ACHN renal = test system: ACHN renal
HCC-2998 colon = test system: HCC-2998 colon
HCT-15 colon = test system: HCT-15 colon
HL-60(TB) leukemia = test system: HL-60(TB) leukemia
HOP-92 NSCLC = test system: HOP-92 NSCLC
HT29 colon = test system: HT29 colon
KM12 colon = test system: KM12 colon
LOX IMVI melanoma = test system: LOX IMVI melanoma
OVCAR-5 ovarian = test system: OVCAR-5 ovarian
PC-3 prostate = test system: PC-3 prostate
RPMI-8226 leukemia = test system: RPMI-8226 leukemia
RXF 393 renal = test system: RXF 393 renal
SF-268 CNS = test system: SF-268 CNS
SF-295 CNS = test system: SF-295 CNS
SF-539 CNS = test system: SF-539 CNS
SK-MEL-28 melanoma = test system: SK-MEL-28 melanoma
SNB-75 CNS = test system: SNB-75 CNS
UACC-257 melanoma = test system: UACC-257 melanoma
T-47D breast = test system: T-47D breast
UACC-62 melanoma = test system: UACC-62 melanoma

SMILES | TGI (ACHN renal) [µM] | TGI (HCC-2998 colon) [µM] | TGI (HCT-15 colon) [µM] | TGI (HL-60(TB) leukemia) [µM] | TGI (HOP-92 NSCLC) [µM] | TGI (HT29 colon) [µM] | TGI (KM12 colon) [µM] | TGI (LOX IMVI melanoma) [µM] | TGI (OVCAR-5 ovarian) [µM] | TGI (PC-3 prostate) [µM] | TGI (RPMI-8226 leukemia) [µM] | TGI (RXF 393 renal) [µM] | TGI (SF-268 CNS) [µM] | TGI (SF-295 CNS) [µM] | TGI (SF-539 CNS) [µM] | TGI (SK-MEL-28 melanoma) [µM] | TGI (SNB-75 CNS) [µM] | TGI (UACC-257 melanoma) [µM] | TGI (T-47D breast) [µM] | TGI (UACC-62 melanoma) [µM]
C[Si](C)(OCCS(=O)(=O)O)OC(=C1S(=O)(=O)OCCOS1(=O)=O)c1cccc2ccccc12 | > 100 | > 100 | > 100 | 36.9 | > 100 | > 100 | > 100 | > 100 | > 100 | > 100 | > 100 | > 100 | > 100 | > 100 | > 100 | > 100 | > 100 | > 100 |  | 
O=S(=O)(c1ccccc1)C1(CCC2OCCO2)C=CC2(CC1)OCCO2 (stereo unspecified) | > 100 | > 100 | > 100 | > 100 | > 100 | > 100 |  |  | > 100 |  | > 100 |  | > 100 | > 100 |  | > 100 | > 100 | > 100 | > 100 | > 100
CN(C)Cc1cc(C=O)cc(CN(C)C)c1O | > 100 | > 100 | > 100 | > 100 | > 100 | > 100 | > 100 | > 100 |  | > 100 | > 100 | > 100 | > 100 | > 100 | > 100 | > 100 | > 100 | > 100 |  | 
CC(C)SC(NC(=O)C1C(C)(C)CCC1(C)C)C(=O)O (stereo unspecified) | > 100 | > 100 | > 100 | > 100 | > 100 |  |  | > 100 | > 100 | > 100 | > 100 |  | > 100 |  | > 100 | > 100 | > 100 |  |  | > 100
Brc1cc2c(cc1C1SCCS1)OCO2 | > 100 | > 100 | > 100 | > 100 |  | > 100 | > 100 | > 100 | > 100 |  | > 100 |  | > 100 | > 100 | > 100 | > 100 | > 100 | > 100 |  | > 100
COc1ccccc1/C=C1\CCC(CCN2CCOCC2)C1=O (stereo unspecified) | > 100 | > 100 | > 100 | > 100 | > 100 | > 100 | > 100 | > 100 | > 100 |  | > 100 | > 100 | > 100 | > 100 | > 100 | > 100 | > 100 | > 100 |  | > 100
Cc1nn(C)cc1P(=S)(c1ccccc1)c1ccccc1 | > 100 | > 100 | > 100 | 41.7 | > 100 | > 100 | > 100 | > 100 | > 100 |  | > 100 | > 100 | > 100 | > 100 | > 100 | > 100 | 85.1 | > 100 |  | > 100
Cc1cc(-c2nc3ccc(F)cc3s2)ccc1N | > 100 | > 100 | > 100 |  | > 100 | > 100 | > 100 | > 100 | > 100 | > 100 | > 100 | > 100 | > 100 | > 100 | > 100 | > 100 | > 100 | > 100 |  | > 100
CN(CC(=O)O)c1ncc2c(n1)-c1ccccc1OC2 | > 100 |  | > 100 | > 100 | > 100 | > 100 | > 100 | > 100 | > 100 | > 100 | > 100 | > 100 | > 100 | > 100 | > 100 | > 100 | > 100 | > 100 |  | > 100
Clc1cc(Br)c2c3c(c(Br)cc(Cl)c13)C(Br)=C2Br | 36.3 | 38.6 | 37.6 | 56 |  | 61.5 | > 100 | 32.2 | > 100 | > 100 | 58.9 |  | 70.4 | > 100 | 35.7 | > 100 | 71.7 | > 100 |  | 79.7
CC(C)(C)OC(=O)C1CC[C@@H](CC(=O)Oc2ccc([N+](=O)[O-])cc2)N1 (stereo partly specified) | > 100 | > 100 | > 100 | > 100 | > 100 |  | > 100 | > 100 | > 100 | > 100 | > 100 | > 100 |  | > 100 | > 100 | > 100 | > 100 | > 100 |  | > 100
COc1ccc(C=C(c2ccc(OCc3ccccc3)cc2)c2ccc(OCc3ccccc3)cc2)cc1 | > 100 | > 100 | > 100 | > 100 |  | > 100 | > 100 | > 100 | > 100 |  | > 100 | > 100 | > 100 | > 100 | > 100 | > 100 | > 100 | > 100 |  | > 100
NC(N)=NS(=O)(=O)c1ccc(Nc2c3ccccc3nc3c(C(=O)Nc4ccc(S(N)(=O)=O)cc4)ccc(Cl)c23)cc1 | > 100 | > 100 | > 100 | > 100 | > 100 | > 100 | > 100 | > 100 | > 100 |  | > 100 | > 100 | > 100 | > 100 | > 100 | > 100 | > 100 | > 100 |  | > 100
O=[N+]([O-])c1c(C=Nc2ccccc2)oc(-c2ccc3c(c2)OCO3)c1-c1ccc2c(c1)OCO2 | > 100 | > 100 | > 100 | > 100 | > 100 | > 100 | > 100 | > 100 | > 100 |  | > 100 | > 100 | > 100 | > 100 | > 100 | > 100 | > 100 | > 100 |  | > 100
CC(=O)c1cccc(NC(=O)C(=O)Nn2c(N)nnc2N)c1 | > 100 | > 100 | > 100 | > 100 | > 100 | > 100 | > 100 | > 100 | > 100 |  | > 100 | > 100 | > 100 | > 100 | > 100 | > 100 | > 100 | > 100 |  | > 100
CN1CC[C@]2(c3cccc(O)c3)CC(=O)/C(=C/c3ccc(Cl)c(Cl)c3)[C@@H]1C2 | 2.38 | 2.77 | 2.52 | 0.464 | 2.57 | 2.22 | 2.06 | 0.327 | 3.18 | 1.42 | 0.901 | 1.92 | 3.66 | 2.86 | 4.52 | 3.28 | 1.55 | 2.93 |  | 
COc1cc(/C=C\c2cccnc2)cc(OC)c1OC | > 100 |  | > 100 | 48 | > 100 | > 100 | > 100 | 71.3 | > 100 |  | 47.7 | 88.5 | > 100 | > 100 | > 100 | > 100 | > 100 | > 100 |  | > 100
COc1cc(/C=C2\C(=O)N(C(=O)c3ccc(NC(C)=O)cc3)N=C2C)ccc1O | > 100 | > 100 |  | > 100 |  | > 100 | > 100 | > 100 | > 100 |  | > 100 |  | > 100 | > 100 | > 100 | > 100 | > 100 | > 100 |  | 
O=c1[nH]cnc2c1CCCN2 | > 100 | > 100 | > 100 | > 100 | > 100 | > 100 | > 100 | > 100 | > 100 |  | > 100 | > 100 | > 100 | > 100 |  | > 100 | > 100 | > 100 |  | > 100
NCCC(=O)N[C@@H](Cc1cc(O)c(O)c(SCC(NC(=O)CC[C@H](N)C(=O)O)C(=O)NCC(=O)O)c1)C(=O)O (stereo partly specified) | > 50 | > 50 | > 50 |  | > 50 | > 50 | > 50 |  | > 50 | > 50 | > 50 | > 50 | > 50 | > 50 |  | > 50 | > 50 | > 50 |  | > 50
O[C@@H]1C[C@H]2N3CC[C@@]2(c2cc4c(cc2C3)OCO4)[C@H]2O[C@@H]12 | > 100 | > 100 | > 100 | > 100 | > 100 | > 100 | > 100 | > 100 | > 100 | > 100 | > 100 | > 100 | > 100 | > 100 | 0.041 | > 100 | > 100 | > 100 |  | > 100
Cc1nn(-c2nc3ccccc3s2)c2c1C(=O)c1ccccc1-2 | > 100 | > 100 | > 100 | > 100 | > 100 | > 100 | > 100 | > 100 | > 100 |  | > 100 | > 100 | > 100 | > 100 | > 100 | > 100 | > 100 | > 100 |  | > 100
COc1cccc(Cc2cc(=O)c3ccc(C)nc3[nH]2)c1 |  |  | > 100 | > 100 | > 100 | > 100 | > 100 | > 100 | > 100 |  | > 100 | > 100 | > 100 | > 100 |  | > 100 | > 100 | > 100 | > 100 | > 100
CCOC(=O)c1ccc(Nc2nc3ccccc3nc2C(=O)OCC)cc1 | > 100 | > 100 | > 100 | > 100 | > 100 | > 100 | > 100 |  | > 100 |  | > 100 |  | > 100 |  | > 100 | > 100 | > 100 |  | > 100 | > 100
CCOc1ccc(NC(=O)C2=C(C)NC(C)=C(C(=O)Nc3ccc(OCC)cc3)C2c2ccccc2)cc1 | > 100 | > 100 |  | 96.9 | > 100 | > 100 | > 100 | > 100 | > 100 |  | > 100 | > 100 | > 100 | > 100 | > 100 | > 100 | > 100 | > 100 |  | 
CN1Cc2cc3c(cc2-c2ccccc21)OCO3 | > 100 | > 100 |  | > 100 | > 100 | > 100 | > 100 | > 100 | > 100 |  | > 100 | > 100 | > 100 | > 100 | > 100 | > 100 | > 100 | > 100 |  | > 100
COC(=O)CSC(=S)Nc1nnc(NC(=S)SCOC(C)=O)n1C(=S)SCC(=O)OC | > 100 | > 100 | > 100 | > 100 |  | > 100 | > 100 | > 100 | > 100 | > 100 | > 100 | > 100 | > 100 | > 100 |  | > 100 |  | > 100 |  | > 100
